Series [1] addresses T1, p38 MAPKα isoform (MAPK14) (Homo sapiens, UniProt Q16539).
T1 construct: purchased Life Technologies
As to the kind of experiment: p38 MAPKα enzyme inhibition (Z-LYTE FRET). Conditions: Table 2A; read-out: IC50 Values for Enzyme Inhibition p38 MAPKα. Format: biochemical. Put shortly:
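Activity was measured indirectly as phosphorylation of a MAPKAP-K2-derived FRET peptide. Enzyme (added at 40 ng/mL) was preincubated 2 h at RT with compound (added solutions 40–0.0012 μg/mL).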

Another series deals with T2, Hck (Homo sapiens, UniProt P08631).
T2 construct: purchased Life Technologies
As to the kind of experiment: Hck enzyme inhibition (Z-LYTE FRET). Format: biochemical. Particulars: Table 2A. Put shortly:
(§1)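 Z-LYTE readout: coumarin-to-fluorescein ratio after 1 h protease cleavage of unphosphorylated peptide. Kinase reactions ran 1 h at RT with ATP stock at 800 μM (c-Src) or 60 μM (Hck, Syk), following 2 h compound preincubation over 0.0012–40 μg/mL; enzyme stocks 1000/1400/2000 ng/mL.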

Another series deals with T3, Syk (Homo sapiens, UniProt P43405).
T3 construct: purchased Life Technologies
As to the kind of experiment: Syk enzyme inhibition (Z-LYTE FRET). Format: biochemical. Particulars: for IC50: Table 2A. In outline: as §1

A further series concerns the target T4, GSK 3α enzyme isoform (Homo sapiens, UniProt P49840).
T4 construct: purchased Life Technologies
As to the kind of experiment: GSK 3α enzyme inhibition (Z-LYTE FRET). Format: biochemical. Particulars: for IC50: Table 2A, read-out: IC50 Values for Enzyme Inhibition GSK3α. In outline:
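Z-LYTE FRET kinase assay: GSK3α protein (500 ng/mL stock) preincubated with compound (0.0012–40 μg/mL stocks) for 2 h at RT. FRET peptide (8 μM stock) and ATP (40 μM stock) added for 1 h at RT, then protease development for 1 h. Phosphorylation taken from the coumarin/fluorescein emission ratio.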

Series [2] deals with IL-8 release in d-U937 cells. Briefly: LPS-induced IL-8 release in d-U937 cells. Conditions: Homo sapiens, dU937, LPS 0.1 μg/mL 4 h. Format: cell-based. Put shortly: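 PMA-differentiated U937 (100-200 ng/mL, 48-72 h); cpd pre-inc 2 h; LPS 0.1 μg/mL (E. coli O111:B4), 4 h. Supernatant TNFα/IL-8 by sandwich ELISA. % inhibition vs vehicle; REC50 from curve.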
For another series, the system named is d-U937 cells. As to the kind of experiment: Cell viability: MTT assay in differentiated U937 cells. Format: cell-based, human. Particulars: 10 μg/mL. Put shortly:
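Viability loss, calculated against 0.5% DMSO vehicle (gains reported negative), was measured by MTT reduction (1 h) and A550 after DMSO solubilisation. Compound exposure of d-U937 cells was 10 μg/mL final, for 24 h in 10% FCS or 4 h in 5% FCS RPMI1640.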

Results on ten compounds are retold here after patent publication US11142515B2, “Pyrazolyl-ureas as kinase inhibitors” (RESPIVERT LIMITED, priority 2014, dated 2021).

One may read the IC50 as the concentration that inhibits the measured activity by half.

T1 sequence (Q16539 whole entry, canonical isoform): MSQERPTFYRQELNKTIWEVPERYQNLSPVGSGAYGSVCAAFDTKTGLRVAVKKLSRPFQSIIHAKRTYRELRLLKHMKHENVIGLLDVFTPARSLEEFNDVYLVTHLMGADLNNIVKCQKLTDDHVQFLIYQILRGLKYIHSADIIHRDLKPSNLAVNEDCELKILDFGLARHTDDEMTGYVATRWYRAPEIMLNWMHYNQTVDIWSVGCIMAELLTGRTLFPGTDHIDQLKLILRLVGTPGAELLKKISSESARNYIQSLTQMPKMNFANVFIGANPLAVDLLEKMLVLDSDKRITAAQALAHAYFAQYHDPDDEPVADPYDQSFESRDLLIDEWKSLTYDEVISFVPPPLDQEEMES
T2 sequence (P08631 22-526): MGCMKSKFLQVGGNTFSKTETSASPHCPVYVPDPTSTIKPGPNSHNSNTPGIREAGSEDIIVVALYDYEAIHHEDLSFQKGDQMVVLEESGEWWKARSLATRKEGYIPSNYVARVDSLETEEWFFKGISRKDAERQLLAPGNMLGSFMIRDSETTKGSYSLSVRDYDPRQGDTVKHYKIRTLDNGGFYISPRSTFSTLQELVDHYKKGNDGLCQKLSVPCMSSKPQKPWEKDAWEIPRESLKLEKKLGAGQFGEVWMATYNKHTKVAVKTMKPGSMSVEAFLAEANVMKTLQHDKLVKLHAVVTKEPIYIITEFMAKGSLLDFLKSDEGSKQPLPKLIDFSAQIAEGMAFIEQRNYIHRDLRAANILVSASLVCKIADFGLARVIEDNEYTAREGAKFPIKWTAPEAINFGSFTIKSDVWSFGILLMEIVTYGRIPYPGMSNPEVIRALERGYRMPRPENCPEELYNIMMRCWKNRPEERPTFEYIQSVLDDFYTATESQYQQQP
T4 sequence (P49840 whole entry, canonical isoform): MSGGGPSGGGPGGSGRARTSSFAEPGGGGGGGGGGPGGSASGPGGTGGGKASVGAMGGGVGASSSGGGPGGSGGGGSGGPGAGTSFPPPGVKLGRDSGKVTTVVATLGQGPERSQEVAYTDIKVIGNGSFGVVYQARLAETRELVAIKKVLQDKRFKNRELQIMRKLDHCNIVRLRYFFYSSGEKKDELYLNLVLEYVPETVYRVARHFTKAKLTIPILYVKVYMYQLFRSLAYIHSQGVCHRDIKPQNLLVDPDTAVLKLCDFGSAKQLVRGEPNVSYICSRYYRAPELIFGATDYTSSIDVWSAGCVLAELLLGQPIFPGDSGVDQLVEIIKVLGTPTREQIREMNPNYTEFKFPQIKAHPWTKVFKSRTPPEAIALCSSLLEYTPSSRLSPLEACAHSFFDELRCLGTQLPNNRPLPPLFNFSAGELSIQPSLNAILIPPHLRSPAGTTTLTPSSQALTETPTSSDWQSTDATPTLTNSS

Consider `Cc1ccc(-n2nc(C(C)(C)C)cc2NC(=O)Nc2ccc(OCc3ccnc(Nc4cnc(C)c(C)n4)c3)c3ccccc23)cc1` [Example 4, 1-(3-(tert-Butyl)-1-(p-tolyl)-1H-pyrazol-5-yl)-3-(4-((2-((5,6-dimethylpyrazin-2-yl)amino)pyridin-4-yl)methoxy)naphthalen-1-yl)urea], for which the IC50 in series [1] was 22 nM; on Hck it was 111 nM; against Syk, more than 16 µM; at GSK 3α enzyme isoform, more than 4.96 µM; in series [2], 25.4 nM. The “MTT Assay Cell viability at time point indicated in d-U937 Cells, 4 h” value (shortened to “MTT Assay Cell viability … in d-U937 Cells, 4 h”) with d-U937 cells was “− (−ve and +ve indicate the value is below and above, respectively, the no significant effect threshold defined as 30% inhibition at 10 μg/mL at the time point indicated)”. Also, the “MTT Assay Cell viability at time point indicated in d-U937 Cells, 24 h” value (“MTT Assay Cell viability … 24 h” below) with d-U937 cells was “− (−ve and +ve indicate the value is below and above, respectively, the no significant effect threshold defined as 30% inhibition at 10 μg/mL at the time point indicated)”.

Turning to `COc1ccc(-n2nc(C(C)(C)C)cc2NC(=O)Nc2ccc(OCc3ccnc(Nc4cncc(C5CC5)n4)c3)c3ccccc23)cc1` [Example 22], the IC50 was determined as 22 nM in series [1]; 14 nM at Hck; 6.7 µM against Syk; 1.71 µM at GSK 3α enzyme isoform; 1.6 nM in series [2]. In addition, the “MTT Assay Cell viability … in d-U937 Cells, 4 h” value with d-U937 cells was “− (−ve and +ve indicate the value is below and above, respectively, the no significant effect threshold defined as 30% inhibition at 10 μg/mL at the time point indicated)”. In addition, the “MTT Assay Cell viability … 24 h” value with d-U937 cells is “− (−ve and +ve indicate the value is below and above, respectively, the no significant effect threshold defined as 30% inhibition at 10 μg/mL at the time point indicated)”.

For `Cc1ccc(-n2nc(C(C)(C)C)cc2NC(=O)Nc2ccc(OCc3ccnc(Nc4cncc(C5CC5)n4)c3)c3ccccc23)s1` [Example 24], the IC50 in series [1] stood at 38 nM; at Hck, 18 nM; against Syk, 8.83 µM; on GSK 3α enzyme isoform it was 1.13 µM; in series [2], 4.5 nM. For the same compound, the “MTT Assay Cell viability … in d-U937 Cells, 4 h” value with d-U937 cells was “− (−ve and +ve indicate the value is below and above, respectively, the no significant effect threshold defined as 30% inhibition at 10 μg/mL at the time point indicated)”. Further, the “MTT Assay Cell viability … 24 h” value with d-U937 cells is “− (−ve and +ve indicate the value is below and above, respectively, the no significant effect threshold defined as 30% inhibition at 10 μg/mL at the time point indicated)”.

Take `COc1cncc(Nc2cc(COc3ccc(NC(=O)Nc4cc(C(C)(C)C)nn4-c4ccc(C)cc4)c4ccccc34)ccn2)n1` [Example 18]: the IC50 was 13 nM in series [1]; 41 nM against Hck; more than 15.9 µM on Syk; 9.17 µM at GSK 3α enzyme isoform; 2.1 nM in series [2]. Also, in the series with d-U937 cells, the “MTT Assay Cell viability … in d-U937 Cells, 4 h” value was “− (−ve and +ve indicate the value is below and above, respectively, the no significant effect threshold defined as 30% inhibition at 10 μg/mL at the time point indicated)”. Moreover, in the series with d-U937 cells, the “MTT Assay Cell viability … 24 h” value was “+ (−ve and +ve indicate the value is below and above, respectively, the no significant effect threshold defined as 30% inhibition at 10 μg/mL at the time point indicated)”.

For the compound `Cc1ccc(-n2nc(C(C)(C)C)cc2NC(=O)Nc2ccc(OCc3ccnc(Nc4cnc(CC(N)=O)cn4)c3)c3ccccc23)cc1` [Example 30], the IC50 in series [1] is 2 nM; against Hck, 6 nM; against Syk it was more than 15.2 µM; on GSK 3α enzyme isoform, 1.49 µM; in series [2] it was 6.9 nM. In addition, the “MTT Assay Cell viability … in d-U937 Cells, 4 h” value in the series with d-U937 cells is “− (−ve and +ve indicate the value is below and above, respectively, the no significant effect threshold defined as 30% inhibition at 10 μg/mL at the time point indicated)”. The “MTT Assay Cell viability … 24 h” value in the series on d-U937 cells was “− (−ve and +ve indicate the value is below and above, respectively, the no significant effect threshold defined as 30% inhibition at 10 μg/mL at the time point indicated)”.

In the case of `CC(C)(C)c1cc(NC(=O)Nc2ccc(OCc3ccnc(Nc4cnccn4)c3)c3ccccc23)n(-c2cccc(F)c2)n1` [Example 49], the IC50 in series [1] stood at 11 nM; against Hck, 115 nM; on Syk it was 9.25 µM; at GSK 3α enzyme isoform, 4.48 µM; in series [2], 24.3 nM. Besides, the “MTT Assay Cell viability … in d-U937 Cells, 4 h” value in the series on d-U937 cells was “− (−ve and +ve indicate the value is below and above, respectively, the no significant effect threshold defined as 30% inhibition at 10 μg/mL at the time point indicated)”. The “MTT Assay Cell viability … 24 h” value in the series with d-U937 cells is “− (−ve and +ve indicate the value is below and above, respectively, the no significant effect threshold defined as 30% inhibition at 10 μg/mL at the time point indicated)”.

Regarding `Cc1ccc(-n2nc(C(C)(C)C)cc2NC(=O)Nc2ccc(OCc3ccnc(Nc4cnccn4)c3)c3ccccc23)cc1` [Example 1, 1-(3-(tert-Butyl)-1-(p-tolyl)-1H-pyrazol-5-yl)-3-(4-((2-(pyrazin-2-ylamino)pyridin-4-yl)methoxy)naphthalen-1-yl)urea], the IC50 in series [1] is 25 nM; at Hck, 29 nM; against Syk, more than 16.7 µM; at GSK 3α enzyme isoform, more than 16.7 µM; in series [2], 13 nM. For the same compound, at Syk, the “inhibitory activity against Syk (in words)” value is reported as “very much weaker than the Reference Compound”. The “inhibitory activity against GSK3a (in words)” value against GSK 3α enzyme isoform was “very much weaker than the Reference Compound”. For the same compound, the “MTT Assay Cell viability … in d-U937 Cells, 4 h” value in the series with d-U937 cells is “− (−ve and +ve indicate the value is below and above, respectively, the no significant effect threshold defined as 30% inhibition at 10 μg/mL at the time point indicated)”. In addition, the “MTT Assay Cell viability … 24 h” value with d-U937 cells was “− (−ve and +ve indicate the value is below and above, respectively, the no significant effect threshold defined as 30% inhibition at 10 μg/mL at the time point indicated)”.

Consider `CNC(=O)Cc1cncc(Nc2cc(COc3ccc(NC(=O)Nc4cc(C(C)(C)C)nn4-c4ccc(C)cc4)c4ccccc34)ccn2)n1` [Example 28], for which the IC50 is 5 nM in series [1]; 11 nM against Hck; more than 14.9 µM at Syk; 5.17 µM on GSK 3α enzyme isoform; 29.9 nM in series [2]. Besides, in the series on d-U937 cells, the “MTT Assay Cell viability … in d-U937 Cells, 4 h” value was “− (−ve and +ve indicate the value is below and above, respectively, the no significant effect threshold defined as 30% inhibition at 10 μg/mL at the time point indicated)”. Moreover, in the series on d-U937 cells, the “MTT Assay Cell viability … 24 h” value is “+ (−ve and +ve indicate the value is below and above, respectively, the no significant effect threshold defined as 30% inhibition at 10 μg/mL at the time point indicated)”.

For the compound `Cc1ccc(-n2nc(C(C)(C)C)cc2NC(=O)Nc2ccc(OCc3ccnc(Nc4cncc(CC(N)=O)n4)c3)c3ccccc23)cc1` [Example 32], the IC50 is 3 nM in series [1]; 7 nM against Hck; more than 15.2 µM against Syk; 1.32 µM on GSK 3α enzyme isoform; 15 nM in series [2]. In addition, in the series on d-U937 cells, the “MTT Assay Cell viability … in d-U937 Cells, 4 h” value was “− (−ve and +ve indicate the value is below and above, respectively, the no significant effect threshold defined as 30% inhibition at 10 μg/mL at the time point indicated)”. For the same compound, the “MTT Assay Cell viability … 24 h” value in the series with d-U937 cells is “− (−ve and +ve indicate the value is below and above, respectively, the no significant effect threshold defined as 30% inhibition at 10 μg/mL at the time point indicated)”.

Turning to `CNC(=O)Cc1cnc(Nc2cc(COc3ccc(NC(=O)Nc4cc(C(C)(C)C)nn4-c4ccc(C)cc4)c4ccccc34)ccn2)cn1` [Example 33], the IC50 was 3 nM in series [1]; 11 nM on Hck; more than 14.9 µM on Syk; 5.96 µM on GSK 3α enzyme isoform; 42.4 nM in series [2]. Further, in the series on d-U937 cells, the “MTT Assay Cell viability … in d-U937 Cells, 4 h” value is “− (−ve and +ve indicate the value is below and above, respectively, the no significant effect threshold defined as 30% inhibition at 10 μg/mL at the time point indicated)”. The “MTT Assay Cell viability … 24 h” value in the series on d-U937 cells was “− (−ve and +ve indicate the value is below and above, respectively, the no significant effect threshold defined as 30% inhibition at 10 μg/mL at the time point indicated)”.
